Experimental data taken from ChEMBL document CHEMBL4811258, “Potent Antimalarials with Development Potential Identified by Structure-Guided Computational Optimization of a Pyrrole-Based Dihydroorotate Dehydrogenase Inhibitor Series” (J Med Chem, 2021).
≈ marks a conversion by molar mass, not a printed value. Calls of active or inactive are those of the source. No cut-off for these calls is given here.

Assays:
[1] = target: Dihydroorotate dehydrogenase (quinone), mitochondrial (Homo sapiens, UniProt Q02127); assay type: ADME
[2] = Inhibition of Plasmodium vivax DHODH expressed in Escherichia coli BL21-DE3 using L-dihydroorotate as substrate by steady-state DCIP method
Plasmodium falciparum [3] = assay: microbe, parasite or virus in culture; conditions: 3D7, 72 h
[4] = Inhibition of Plasmodium falciparum DHODH expressed in Escherichia coli BL21-DE3 using L-dihydroorotate as substrate by steady-state DCIP method
[5] = Lipophilicity, logD of compound at pH 7.4; assay type: physicochemical; conditions: buffer
[6] = target: Dihydroorotate dehydrogenase (quinone), mitochondrial (Mus musculus, UniProt O35435); assay: Inhibition of mouse DHODH up to 100 uM
[7] = target: Dihydroorotate dehydrogenase (quinone), mitochondrial (Rattus norvegicus, UniProt Q63707); assay: Inhibition of rat DHODH up to 100 uM
[8] = Inhibition of dog DHODH up to 100 uM; parameters: species or system Canis lupus familiaris
L1210 = assay: Cytotoxicity against mouse L1210 cells; assay type: cell-based
[9] = Mutagenicity in Salmonella typhimurium by Ames test; assay type: toxicity; conditions: salmonella enterica subsp. enterica serovar typhimurium
HepG2 = assay: Cytotoxicity against human HepG2 cells; assay type: cell-based
Plasmodium falciparum [10] = tested on: Plasmodium falciparum
[11] = Oral bioavailability in mouse at 19 mg/kg; assay type: ADME, organism-based; conditions: in vivo
Cytochrome P450 3A4 = Cytochrome P450 3A4 (Homo sapiens, UniProt P08684)
Plasmodium falciparum [12] = assay: Antimalarial activity against Plasmodium falciparum 3D70087/N9 infected in orally dosed NOD-SCID IL2Rgamma null mouse assessed as parasitemia level in human red blood cells at 10 to 100 mg/kg, po administered days after 1 day post infection twice daily for 6 days measured on day 7 by flow cytometry; assay type: functional, organism-based; conditions: dose 10-100 mg/kg
[13] = Volume of distribution at steady state in Swiss mouse at 1 mg/kg, iv measured up to 24 hrs by LC-MS analysis; assay type: ADME, organism-based; conditions: in vivo, read-out: Vdss
[14] = AUC (0 to infinity) in Swiss mouse at 10 mg/kg, po measured up to 24 hrs by LC-MS analysis; assay type: ADME, organism-based; parameters: route oral, dose 10 mg/kg, time <=24; conditions: in vivo
[15] = Cmax in Sprague-Dawley rat at 19 mg/kg, po measured up to 24 hrs; assay type: ADME, organism-based; parameters: route oral, dose 19 mg/kg, time <=24; conditions: in vivo
[16] = Cmax in Swiss mouse at 10 mg/kg, po measured up to 24 hrs by LC-MS analysis; assay type: ADME, organism-based; parameters: route oral, dose 10 mg/kg, time <=24; conditions: in vivo
Albumin = Albumin (Bos taurus, UniProt P02769); assay: Binding affinity to bovine serum albumin by Albumax assay; assay type: ADME; conditions: cattle, isolated protein
[17] = Oral bioavailability in Swiss mouse at 10 mg/kg measured up to 24 hrs by LC-MS analysis; assay type: ADME, organism-based; conditions: in vivo
[18] = Tmax in Swiss mouse at 10 mg/kg, po measured up to 24 hrs by LC-MS analysis; assay type: ADME, organism-based; conditions: in vivo
in vitro [19] = conditions: mouse, plasma
[20] = Volume of distribution at steady state in Sprague-Dawley rat at […], iv measured up to 24 hrs; assay type: ADME, organism-based; conditions: in vivo, dose 2.6 mg/kg, read-out: Vdss
Plasmodium falciparum [21] = assay: Antiplasmodial activity against Plasmodium falciparum Dd2 Uganda infected in human erythrocytes assessed as parasite killing using albumax media measured after 72 hrs by SYBR Green assay; assay type: functional, organism-based; conditions: Dd2, 72 h
in vitro [22] = conditions: rat, plasma
[23] = Apparent half life in Sprague-Dawley rat at 19 mg/kg, po measured up to 24 hrs; assay type: ADME, organism-based; conditions: in vivo, read-out: t1/2(app) (converted)
[24] = Binding affinity to microsome (unknown origin); assay type: ADME; conditions: microsomes
in vitro [25] = conditions: human, plasma
[26] = Plasma clearance in Swiss mouse at 1 mg/kg, iv measured up to 24 hrs by LC-MS analysis; assay type: ADME, organism-based
Plasmodium falciparum [27] = assay: Antimalarial activity against Plasmodium falciparum 3D70087/N9 infected in orally dosed NOD-SCID IL2Rgamma null mouse assessed as parasitemia level administered days after 3 post infection once daily for 4 days measured on day 7 by flow cytometry; assay type: functional; conditions: time 4 day
Plasmodium falciparum [28] = assay: Antimalarial activity against Plasmodium falciparum 3D70087/N9 infected in NOD-SCID IL2Rgamma null mouse assessed as parasitemia level at 10 mg/kg, po administered days after 3 post infection once daily for 4 days measured on day 7 by flow cytometry; assay type: functional, organism-based; conditions: time 4.0 day
physchem [29] = conditions: FaSSIF, pH 6.5
in vitro [30] = conditions: human, caco-2, pH 7.4
[31] = AUC (0 to infinity) in Sprague-Dawley rat at 19 mg/kg, po measured up to 24 hrs; assay type: ADME, organism-based; parameters: route oral, dose 19 mg/kg, time <=24; conditions: in vivo
Plasmodium falciparum [32] = assay: Antiplasmodial activity against Plasmodium falciparum Uganda field isolated from patients infected in human erythrocytes assessed as parasite killing using albumax media measured after 72 hrs by SYBR Green assay; assay type: functional, organism-based
[33] = Half life in Swiss mouse at 10 mg/kg, po measured up to 24 hrs by LC-MS analysis; assay type: ADME, organism-based; conditions: in vivo
Plasmodium falciparum [34] = assay: Antiplasmodial activity against Plasmodium falciparum 3D7 Uganda infected in human erythrocytes assessed as parasite killing using albumax media measured after 72 hrs by SYBR Green assay; assay type: functional, organism-based; conditions: 3D7, 72 h
[35] = Intrinsic clearance in mouse liver microsomes at 1 uM measured up to 4 hrs by LC-MS analysis; assay type: ADME, Microsome
physchem [36] = conditions: PBS, pH 7.4
[37] = Unbound intrinsic clearance in mouse liver microsomes at 1 uM measured up to 4 hrs by LC-MS analysis; assay type: ADME, Microsome
[38] = Plasma clearance in Sprague-Dawley rat at […], iv measured up to 24 hrs; assay type: ADME, organism-based; conditions: dose 2.6 mg/kg
[39] = Oral bioavailability in Sprague-Dawley rat at 19 mg/kg measured up to 24 hrs; assay type: ADME, organism-based; conditions: in vivo
physchem [40] = conditions: FaSSGF, pH 1.6
in vitro [41] = conditions: human, caco-2, pH 7.4; remark: listed apart in the source
[42] = Tmax in Sprague-Dawley rat at 19 mg/kg, po measured up to 24 hrs; assay type: ADME, organism-based; conditions: in vivo
physchem [43] = conditions: FeSSIF, pH 5.8
[44] = Unbound AUC in orally dosed NOD-SCID IL2Rgamma null mouse infected with Plasmodium falciparum 3D70087/N9 administered days after 3 post infection once daily for 4 days measured on day 7 by flow cytometry; assay type: ADME, organism-based; conditions: in vivo, po, 96 h, time 4 day
Plasmodium falciparum [45] = assay: Antimalarial activity against Plasmodium falciparum 3D70087/N9 infected in orally dosed NOD-SCID IL2Rgamma null mouse assessed as parasitemia level in human red blood cells at 16.7 mg/kg, po administered days after 1 day post infection twice daily for 6 days measured on day 7 by flow cytometry; assay type: functional, organism-based; conditions: time 6.0 day

Chain of Dihydroorotate dehydrogenase (quinone), mitochondrial (Homo sapiens, UniProt Q02127) (Q02127 whole entry): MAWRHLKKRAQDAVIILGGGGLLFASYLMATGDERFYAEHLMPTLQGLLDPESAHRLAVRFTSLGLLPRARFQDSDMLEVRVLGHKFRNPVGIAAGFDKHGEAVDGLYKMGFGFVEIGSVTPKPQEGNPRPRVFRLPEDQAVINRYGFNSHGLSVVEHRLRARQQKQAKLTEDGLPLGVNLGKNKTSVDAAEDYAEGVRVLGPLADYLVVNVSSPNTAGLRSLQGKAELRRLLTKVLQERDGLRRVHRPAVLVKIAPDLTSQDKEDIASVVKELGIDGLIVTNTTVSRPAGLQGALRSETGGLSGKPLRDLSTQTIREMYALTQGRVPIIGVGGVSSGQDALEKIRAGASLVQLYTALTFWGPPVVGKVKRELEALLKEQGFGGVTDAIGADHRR
Chain of Cytochrome P450 3A4 (P08684 whole entry): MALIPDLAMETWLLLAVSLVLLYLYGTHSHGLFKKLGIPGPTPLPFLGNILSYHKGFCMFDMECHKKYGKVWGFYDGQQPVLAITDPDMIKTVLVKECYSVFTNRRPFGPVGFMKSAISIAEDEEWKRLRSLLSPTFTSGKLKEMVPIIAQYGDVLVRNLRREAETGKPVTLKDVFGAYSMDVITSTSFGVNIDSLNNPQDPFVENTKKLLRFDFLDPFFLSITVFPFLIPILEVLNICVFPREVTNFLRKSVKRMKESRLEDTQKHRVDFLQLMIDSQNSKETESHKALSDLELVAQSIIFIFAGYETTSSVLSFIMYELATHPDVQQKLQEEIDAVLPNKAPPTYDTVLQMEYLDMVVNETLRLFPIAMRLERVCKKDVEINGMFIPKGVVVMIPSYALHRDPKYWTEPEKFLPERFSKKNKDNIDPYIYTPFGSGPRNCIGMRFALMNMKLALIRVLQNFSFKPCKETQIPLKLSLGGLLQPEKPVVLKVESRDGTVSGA
Chain of Dihydroorotate dehydrogenase (quinone), mitochondrial (Rattus norvegicus, UniProt Q63707) (Q63707 whole entry): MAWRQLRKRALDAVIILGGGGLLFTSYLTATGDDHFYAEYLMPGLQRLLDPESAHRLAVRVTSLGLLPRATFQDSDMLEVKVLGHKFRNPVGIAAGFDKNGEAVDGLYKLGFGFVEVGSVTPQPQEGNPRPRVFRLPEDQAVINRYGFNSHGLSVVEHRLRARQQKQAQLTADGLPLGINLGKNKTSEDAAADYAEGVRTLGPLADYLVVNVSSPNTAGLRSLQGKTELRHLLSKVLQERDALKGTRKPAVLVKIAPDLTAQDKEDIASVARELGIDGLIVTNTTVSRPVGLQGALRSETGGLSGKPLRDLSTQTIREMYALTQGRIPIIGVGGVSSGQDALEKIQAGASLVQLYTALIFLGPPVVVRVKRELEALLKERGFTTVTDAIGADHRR
Chain of Dihydroorotate dehydrogenase (quinone), mitochondrial (Mus musculus, UniProt O35435) (O35435 whole entry): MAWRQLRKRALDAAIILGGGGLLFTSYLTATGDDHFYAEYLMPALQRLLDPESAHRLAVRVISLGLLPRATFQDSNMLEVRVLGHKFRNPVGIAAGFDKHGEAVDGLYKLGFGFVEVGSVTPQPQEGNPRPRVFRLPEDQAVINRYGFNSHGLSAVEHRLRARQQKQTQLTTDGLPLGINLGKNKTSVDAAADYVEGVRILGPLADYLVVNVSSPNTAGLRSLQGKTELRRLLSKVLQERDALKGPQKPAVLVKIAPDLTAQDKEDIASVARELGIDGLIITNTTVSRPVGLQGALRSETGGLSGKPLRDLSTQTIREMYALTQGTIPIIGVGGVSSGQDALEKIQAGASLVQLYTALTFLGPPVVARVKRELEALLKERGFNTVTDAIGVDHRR
Chain of Albumin (P02769 whole entry): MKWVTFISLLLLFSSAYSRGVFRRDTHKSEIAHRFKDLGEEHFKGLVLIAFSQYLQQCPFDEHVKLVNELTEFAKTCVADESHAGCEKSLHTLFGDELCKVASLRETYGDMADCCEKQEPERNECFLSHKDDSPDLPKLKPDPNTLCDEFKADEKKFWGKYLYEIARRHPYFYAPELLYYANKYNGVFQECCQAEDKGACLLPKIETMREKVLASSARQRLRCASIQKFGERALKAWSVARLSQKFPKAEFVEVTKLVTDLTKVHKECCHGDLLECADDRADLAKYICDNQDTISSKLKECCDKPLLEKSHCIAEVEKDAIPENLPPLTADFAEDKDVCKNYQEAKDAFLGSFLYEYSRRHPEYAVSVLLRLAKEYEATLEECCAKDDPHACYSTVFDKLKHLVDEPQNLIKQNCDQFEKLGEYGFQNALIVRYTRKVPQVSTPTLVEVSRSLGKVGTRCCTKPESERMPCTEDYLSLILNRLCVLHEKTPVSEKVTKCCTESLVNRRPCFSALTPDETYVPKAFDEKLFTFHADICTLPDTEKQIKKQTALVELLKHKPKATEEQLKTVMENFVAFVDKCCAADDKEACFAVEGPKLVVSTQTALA

COc1ccc(Cc2c[nH]c(C(=O)NC3CC3)c2C)c2cnccc12
IC50 [1]: > 50000 nM | IC50 [2]: 21 nM | EC50 (Plasmodium falciparum [3]): 1.7 nM | IC50 [4]: 23 nM | logD [5]: < 3.4

Cc1c(Cc2ccc(F)c3ccncc23)c[nH]c1C(=O)NC1CC1
IC50 [1]: > 100000 nM | IC50 [2]: 4 nM | EC50 (Plasmodium falciparum [3]): 0.92 nM | IC50 [4]: 6.1 nM | logD [5]: < 3.4

Cc1c(Cc2cccc3ccncc23)c[nH]c1C(=O)NC1CC1
IC50 [1]: > 100000 nM | IC50 [2]: 16 nM | EC50 (Plasmodium falciparum [3]): 2.2 nM | IC50 [4]: 11 nM | logD [5]: < 3.4

Cc1c(C2(c3ccc(C(F)(F)F)c(C#N)c3)CC2)c[nH]c1C(=O)NC(C)c1nc[nH]n1 (stereo in doubt; form 1) [listing 1 of 2 here]
inhibition (INH) [6]: Not Active | inhibition (INH) [7]: Not Active | inhibition (INH) [8]: Not Active | Activity (L1210): Non-Toxic | Activity [9]: Non-Toxic | Activity (HepG2): Non-Toxic

Cc1c(Cc2ccc(F)c3ccncc23)c[nH]c1C(=O)N1CC(F)(F)C1
IC50 [1]: > 100000 nM | IC50 [2]: 6.5 nM | EC50 (Plasmodium falciparum [3]): 3.4 nM | IC50 [4]: 11 nM | logD [5]: < 3.4

Cc1c(C2(c3ccc(C(F)(F)F)nc3)CC2)c[nH]c1C(=O)NC(C)c1cc(C(N)=O)[nH]n1 (stereo in doubt; form 1)
IC50 [2]: 170 nM | IC50 [4]: 140 nM | EC50 (Plasmodium falciparum [10]): 46 nM | F [11]: 18%

Cc1c(C2(c3ccc(C(F)(F)F)nc3)CC2)c[nH]c1C(=O)NC(C)c1c[nH]cn1 (stereo in doubt; form 1)
TDI (Cytochrome P450 3A4): Active | EC50 (Plasmodium falciparum [3]): 43000 nM

Cc1c(Cc2cccc3ccncc23)c[nH]c1C(=O)N1CC(F)(F)C1
IC50 [1]: > 100000 nM | IC50 [2]: 7.7 nM | EC50 (Plasmodium falciparum [3]): 3.8 nM | IC50 [4]: 16 nM | logD [5]: < 3.4

Cc1c(C2(c3ccc(C(F)(F)F)c(C#N)c3)CC2)c[nH]c1C(=O)NC(C)c1nc[nH]n1 (stereo in doubt; form 1) [listing 2 of 2 here]
Activity (Plasmodium falciparum [12]): Active

Cc1cc(Nc2ccc(S(F)(F)(F)(F)F)cc2)n2nc(C(F)(F)F)nc2n1
Vd [13]: 2.3 L/kg | AUC(0-inf) [14]: 22.8 µM·h | Cmax [15]: 4 µM | Cmax [16]: 3.1 µM | Activity (Albumin): 83.1% | bioavailability [17]: 46% | Tmax [18]: 1.2 h | fraction unbound (in vitro [19]): 0.03 | Vd at 24 h [20]: 5.9 L/kg | EC50 (Plasmodium falciparum [21]): 2.9 nM | fraction unbound (in vitro [22]): 0.025 | half-life [23]: 16 h | Activity [24]: 71.7% | fraction unbound (in vitro [25]): 0.002 | clearance [26]: 8.2 mL/min/kg | ED50 (Plasmodium falciparum [27]): 5.6 mg/kg | EC50 (Plasmodium falciparum [3]): 6 nM | Activity (Plasmodium falciparum [28]): Active | solubility at 5 h (physchem [29]): 5.1 µg/mL (≈ 12.2 µM) | IC50 [4]: 30 nM | Papp B→A (in vitro [30]): 49 ×10⁻⁶ cm/s | AUC(0-inf) [31]: 120 µM·h | EC50 (Plasmodium falciparum [32]): 3.7 nM | half-life [33]: 2.5 h | EC50 (Plasmodium falciparum [34]): 2.9 nM | Intrinsic clearance [35]: < 7 µL/min/mg | solubility at 5 h (physchem [36]): 2 µg/mL (≈ 4.77 µM) | CL free [37]: < 25 µL/min/mg | clearance at 24 h [38]: 6.5 mL/min/kg | bioavailability [39]: 57% | solubility at 1 h (physchem [40]): 6.8 µg/mL (≈ 16.2 µM) | Papp A→B (in vitro [41]): 54 ×10⁻⁶ cm/s | Tmax [42]: 7 h | solubility at 5 h (physchem [43]): 27.6 µg/mL (≈ 65.8 µM) | fAUC [44]: 0.85 µM·h | Activity (Plasmodium falciparum [45]): Active

Cc1c(Cc2cccc3ccncc23)c[nH]c1C(=O)NCC(F)(F)F
IC50 [1]: > 100000 nM | IC50 [2]: 17 nM | EC50 (Plasmodium falciparum [3]): 9.6 nM | IC50 [4]: 35 nM | logD [5]: < 3.4
